Assay results reported in patent US12227495B2, “Herbicidal compounds” (SYNGENTA CROP PROTECTION AG, priority 2018, dated 2025).

Experiments:
Assay type in all cases: in vivo
Settings in all cases: evaluated after 13 days
[1] = system: Amaranthus retoflexus (AMARE); experiment: Post-emergence herbicide test, glasshouse, percentage damage
Experimental: (§1) Seeds of a variety of test species are sown in standard soil in pots (Lolium perenne (LOLPE), Solanum nigrum (SOLNI), Amaranthus retoflexus (AMARE), Setaria faberi (SETFA), Echinochloa crus-galli (ECHCG), Ipomoea hederacea (IPOHE)). After cultivation for one day (pre-emergence) or after 8 days cultivation (post-emergence) under controlled conditions in a glasshouse (at 24/16° C., day/night; 14 hours light; 65% humidity), the plants are sprayed with an aqueous spray solution derived from the formulation of the technical active ingredient in acetone/water (50:50) solution containing 0.5% Tween 20 (polyoxyethelyene sorbitan monolaurate, CAS RN 9005-64-5). Compounds are applied at 500 g/ha unless otherwise stated. The test plants are then grown in a glasshouse under controlled conditions in a glasshouse (at 24/16° C., day/night; 14 hours light; 65% humidity) and watered twice daily. After 13 days for pre and post-emergence, the test is evaluated for the percentage damage caused to the plant. The biological activities are shown in the following table on a five point scale (5=81-100%; 4=61-80%; 3=41-60%; 2=21-40%; 1=0-20%).

[2] = system: Echinochloa crus-galli (ECHCG); experiment: as above
Experimental: as §1

[3] = system: Ipomoea hederacea (IPOHE); experiment: as above
Experimental: as §1

Lolium perenne (LOLPE) [4] = experiment: as above
Experimental: as §1

Setaria faberi (SETFA) [5] = experiment: as above
Experimental: as §1

Solanum nigrum (SOLNI) [6] = experiment: as above
Experimental: as §1

[7] = system: Amaranthus retoflexus (AMARE); experiment: Pre-emergence herbicide test, glasshouse, percentage damage
Experimental: as §1

[8] = system: Echinochloa crus-galli (ECHCG); experiment: as above
Experimental: as §1

[9] = system: Ipomoea hederacea (IPOHE); experiment: as above
Experimental: as §1

Lolium perenne (LOLPE) [10] = experiment: as above
Experimental: as §1

Setaria faberi (SETFA) [11] = experiment: as above
Experimental: as §1

Solanum nigrum (SOLNI) [12] = experiment: as above
Experimental: as §1

Structure (SMILES) | percentage damage caused to the plant, AMARE ([1]; 500 g/ha) | percentage damage caused to the plant, ECHCG ([2]; 500 g/ha) | percentage damage caused to the plant, IPOHE ([3]; 500 g/ha) | percentage damage caused to the plant, LOLPE (Lolium perenne (LOLPE) [4]; 500 g/ha) | percentage damage caused to the plant, SETFA (Setaria faberi (SETFA) [5]; 500 g/ha) | percentage damage caused to the plant, SOLNI (Solanum nigrum (SOLNI) [6]; 500 g/ha) | Pre-emergence Test AMARE percentage damage (five point scale) ([7]; rate 500 g/ha) | Pre-emergence Test ECHCG percentage damage (five point scale) ([8]; rate 500 g/ha) | Pre-emergence Test IPOHE percentage damage (five point scale) ([9]; rate 500 g/ha) | Pre-emergence Test LOLPE percentage damage (five point scale) (Lolium perenne (LOLPE) [10]; rate 500 g/ha) | Pre-emergence Test SETFA percentage damage (five point scale) (Setaria faberi (SETFA) [11]; rate 500 g/ha) | Pre-emergence Test SOLNI percentage damage (five point scale) (Solanum nigrum (SOLNI) [12]; rate 500 g/ha) | percentage damage caused to the plant, AMARE ([1]; 250 g/ha) | percentage damage caused to the plant, ECHCG ([2]; 250 g/ha) | percentage damage caused to the plant, IPOHE ([3]; 250 g/ha) | percentage damage caused to the plant, SETFA (Setaria faberi (SETFA) [5]; 250 g/ha) | Pre-emergence Test AMARE percentage damage (five point scale) ([7]; rate 250 g/ha) | Pre-emergence Test ECHCG percentage damage (five point scale) ([8]; rate 250 g/ha) | Pre-emergence Test IPOHE percentage damage (five point scale) ([9]; rate 250 g/ha) | Pre-emergence Test SETFA percentage damage (five point scale) (Setaria faberi (SETFA) [11]; rate 250 g/ha) | other results
Fc1cc(Cl)cnc1Oc1cccc(F)c1-c1cc(C(F)F)no1 [Compound A1, 5-[2-[(5-CHLORO-3-FLUORO-2-PYRIDYL)OXY]-6-FLUORO-PHENYL]-3-(DIFLUOROMETHYL)ISOXAZOLE] | 5 (5=81-100%) | 5 (5=81-100%) | 5 (5=81-100%) | 5 (5=81-100%) | 5 (5=81-100%) | 5 (5=81-100%) | 5 (5=81-100%) | 5 (5=81-100%) | 5 (5=81-100%) | 5 (5=81-100%) | 5 (5=81-100%) | 5 (5=81-100%) |  |  |  |  |  |  |  |  | 
O=[N+]([O-])c1ccc(Oc2cccc(F)c2-c2cc(C(F)F)no2)nc1 [Compound A2, 3-(DIFLUOROMETHYL)-5-[2-FLUORO-6-[(5-NITRO-2-PYRIDYL)OXY]PHENYL]ISOXAZOLE] | 5 (5=81-100%) | 5 (5=81-100%) | 4 (4=61-80%) | 5 (5=81-100%) | 5 (5=81-100%) | 5 (5=81-100%) | 5 (5=81-100%) | 5 (5=81-100%) | 2 (2=21-40%) | 4 (4=61-80%) | 5 (5=81-100%) | 4 (4=61-80%) |  |  |  |  |  |  |  |  | 
Fc1cc(Cl)cnc1Oc1cccc(F)c1-c1ncc(C(F)(F)F)o1 [Compound A3, 2-[2-[(5-CHLORO-3-FLUORO-2-PYRIDYL)OXY]-6-FLUORO-PHENYL]-5-(TRIFLUOROMETHYL)OXAZOLE] | 2 (2=21-40%) | 1 (1=0-20%) | 1 (1=0-20%) | 1 (1=0-20%) | 4 (4=61-80%) | 3 (3=41-60%) | 3 (3=41-60%) | 3 (3=41-60%) | 1 (1=0-20%) | 1 (1=0-20%) | 3 (3=41-60%) | 3 (3=41-60%) |  |  |  |  |  |  |  |  | 
Fc1cccc(Oc2ncc(Cl)cc2Cl)c1-c1cc(C(F)F)no1 [Compound A4] | 5 (5=81-100%) | 1 (1=0-20%) | 1 (1=0-20%) | 1 (1=0-20%) | 3 (3=41-60%) | 5 (5=81-100%) | 3 (3=41-60%) | 2 (2=21-40%) | 1 (1=0-20%) | 1 (1=0-20%) | 2 (2=21-40%) | 3 (3=41-60%) |  |  |  |  |  |  |  |  | 
Fc1cc(Cl)cnc1Oc1cccc(I)c1-n1cc(C(F)(F)F)cn1 [Compound A57, 5-chloro-3-fluoro-2-[3-iodo-2-[4-(trifluoromethyl)pyrazol-1-yl]phenoxy]pyridine] |  |  |  |  |  |  |  |  |  |  |  |  |  |  |  |  |  |  |  |  | percentage damage caused to the plant, AMARE ([1]; 1000 g/ha): 5 (5=81-100%); percentage damage caused to the plant, ECHCG ([2]; 1000 g/ha): 1 (1=0-20%); percentage damage caused to the plant, IPOHE ([3]; 1000 g/ha): 2 (2=21-40%); percentage damage caused to the plant, LOLPE (Lolium perenne (LOLPE) [4]; 1000 g/ha): 1 (1=0-20%); percentage damage caused to the plant, SETFA (Setaria faberi (SETFA) [5]; 1000 g/ha): 4 (4=61-80%); percentage damage caused to the plant, SOLNI (Solanum nigrum (SOLNI) [6]; 1000 g/ha): 5 (5=81-100%); Pre-emergence Test AMARE percentage damage (five point scale) ([7]; rate 1000 g/ha): 5 (5=81-100%); Pre-emergence Test ECHCG percentage damage (five point scale) ([8]; rate 1000 g/ha): 1 (1=0-20%); Pre-emergence Test LOLPE percentage damage (five point scale) (Lolium perenne (LOLPE) [10]; rate 1000 g/ha): 1 (1=0-20%); Pre-emergence Test SETFA percentage damage (five point scale) (Setaria faberi (SETFA) [11]; rate 1000 g/ha): 5 (5=81-100%); Pre-emergence Test SOLNI percentage damage (five point scale) (Solanum nigrum (SOLNI) [12]; rate 1000 g/ha): 4 (4=61-80%)
Fc1cc(Cl)cnc1Oc1ccccc1-c1ccc(Cl)s1 [Compound A66, 5-chloro-2-[2-(5-chloro-2-thienyl)phenoxy]-3-fluoro-pyridine] |  |  |  |  |  |  |  |  |  |  |  |  |  |  |  |  |  |  |  |  | percentage damage caused to the plant, AMARE ([1]; 1000 g/ha): 5 (5=81-100%); percentage damage caused to the plant, ECHCG ([2]; 1000 g/ha): 3 (3=41-60%); percentage damage caused to the plant, IPOHE ([3]; 1000 g/ha): 2 (2=21-40%); percentage damage caused to the plant, LOLPE (Lolium perenne (LOLPE) [4]; 1000 g/ha): 1 (1=0-20%); percentage damage caused to the plant, SETFA (Setaria faberi (SETFA) [5]; 1000 g/ha): 2 (2=21-40%); percentage damage caused to the plant, SOLNI (Solanum nigrum (SOLNI) [6]; 1000 g/ha): 5 (5=81-100%)
Cc1ccc(C#N)nc1Oc1cccc(F)c1-c1cc(C(F)F)no1 [Compound A76] |  |  |  |  |  |  |  |  |  |  |  |  | 2 (2=21-40%) | 1 (1=0-20%) | 3 (3=41-60%) | 1 (1=0-20%) |  |  |  |  | percentage damage caused to the plant, LOLPE (Lolium perenne (LOLPE) [4]; 250 g/ha): 1 (1=0-20%); percentage damage caused to the plant, SOLNI (Solanum nigrum (SOLNI) [6]; 250 g/ha): 4 (4=61-80%)
FC(F)c1cc(-c2c(Br)cccc2Oc2ccc(Cl)cn2)on1 [Compound A100] |  |  |  |  |  |  |  |  |  |  |  |  | 5 (5=81-100%) | 5 (5=81-100%) | 2 (2=21-40%) | 5 (5=81-100%) | 5 (5=81-100%) | 2 (2=21-40%) | 1 (1=0-20%) | 5 (5=81-100%) | 
Cc1noc(-c2ccccc2Oc2ncc(Cl)cc2F)n1 [Compound A126] |  |  |  |  |  |  |  |  |  |  |  |  |  |  |  |  | 5 (5=81-100%) | 4 (4=61-80%) | 1 (1=0-20%) | 3 (3=41-60%) | 
Fc1cc(Cl)cnc1Oc1ccccc1-c1cc(C(F)F)on1 [Compound A163] |  |  |  |  |  |  |  |  |  |  |  |  | 5 (5=81-100%) | 5 (5=81-100%) | 3 (3=41-60%) | 5 (5=81-100%) | 5 (5=81-100%) | 4 (4=61-80%) | 1 (1=0-20%) | 5 (5=81-100%) | 
Fc1cc(Cl)cnc1Oc1ccccc1-n1cc(C(F)F)nn1 [Compound A169] |  |  |  |  |  |  |  |  |  |  |  |  | 5 (5=81-100%) | 5 (5=81-100%) | 5 (5=81-100%) | 5 (5=81-100%) | 5 (5=81-100%) | 5 (5=81-100%) | 5 (5=81-100%) | 5 (5=81-100%) | 
